Measured values: patent US4368325A, “Processes for preparing 3-cephem compounds” (Fujisawa Pharmaceutical Co., Ltd., priority 1980, dated 1983)
≈ marks a conversion by molar mass, not a printed value.

Experiments:
Experiment in all cases: In vitro antibacterial activity, two-fold agar-plate dilution method
Assay type in all cases: cell-based
Proteus mirabilis 18 = settings: HI-agar, 37° C., 20 hours, 100-fold dilution of overnight culture, read-out: minimal inhibitory concentration (MIC)
Description: (§1) In vitro antibacterial activity was determined by the two-fold agar-plate dilution method as described below. One loopful of the 100-fold dilution of an overnight culture of each test strain in Trypticasesoy broth was streaked on heart infusion agar (HI-agar) containing graded concentrations of the test compound and incubated at 37° C. for 20 hours. The minimal inhibitory concentration (MIC) was expressed in μg/ml.

[1] = tested on: Pseudomonus aeruginosa NCTC-10490; settings: HI-agar, 37° C., 20 hours, 100-fold dilution of overnight culture, read-out: minimal inhibitory concentration (MIC)
Description: as §1

[2] = tested on: Escherichia coli. NIHJ JC-2; settings: NIHJJC2, HI-agar, 37° C., 20 hours, 100-fold dilution of overnight culture, read-out: minimal inhibitory concentration (MIC)
Description: as §1

[3] = tested on: Proteus vulgaris IAM-1025; settings: IAM1025, HI-agar, 37° C., 20 hours, 100-fold dilution of overnight culture, read-out: minimal inhibitory concentration (MIC)
Description: as §1

Serratia marcescens 35 = settings: HI-agar, 37° C., 20 hours, 100-fold dilution of overnight culture, read-out: minimal inhibitory concentration (MIC)
Description: as §1

Klebsiella pneumoniae 20 = settings: HI-agar, 37° C., 20 hours, 100-fold dilution of overnight culture, read-out: minimal inhibitory concentration (MIC)
Description: as §1

[4] = tested on: Staphylococcus aureus 209P JC-1; settings: HI-agar, 37° C., 20 hours, 100-fold dilution of overnight culture, read-out: minimal inhibitory concentration (MIC)
Description: as §1

`CO/N=C(\C(=O)NC1C(=O)N2C(C(=O)O)=CCSC12)c1csc(N)n1` (stereo not drawn) [7-[2-(2-aminothiazol-4-yl)-2-methoxyiminoacetamido]-3-cephem-4-carboxylic acid (syn isomer)] gave an MIC (Proteus mirabilis 18) of at most 0.025 µg/mL, an MIC [1] of 0.39 µg/mL (≈ 1.02 µM) and an MIC [2] of at most 0.025 µg/mL. The MIC [3] was at most 0.025 µg/mL, the MIC (Serratia marcescens 35) was 1.56 µg/mL (≈ 4.07 µM) and the MIC (Klebsiella pneumoniae 20) was at most 0.025 µg/mL. It also gave an MIC [4] of 6.25 µg/mL (≈ 16.3 µM).
